From ChEMBL document CHEMBL1201862, “PubChem BioAssay data set” (2004) come the findings set out here.

Common to all, as to experiment: DTP human tumour cell line panel, 48 h
Test [1] concerns CAKI-1.
Test [2] relates to DU-145.
Test [3] relates to EKVX.
In test [4] the test system is HCT-116.
For test [5], the system named is HCT-15.
The subject of test [6] is HL-60.
Test [7] concerns HOP-62.
Test [8] has as its system HT-29.
Test [9] relates to Hs-578T.
In test [10] the test system is K562.
For test [11], the system named is LOX IMVI.
Test [12] deals with MDA-N.
Test [13] deals with Malme-3M.
In test [14] the test system is NCI-H460.
Test [15] relates to RPMI-8226.
Test [16] deals with SF-268.
Test [17] deals with SF-295.
In test [18] the test system is SK-MEL-5.
The subject of test [19] is SN12C.
The test system of test [20] is UACC-62.

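Five concentrations, 48 hours, 96-well plates. GI50 marks 50% less growth.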 Calls of active or inactive are those of the source. Rule as the data show it: active = GI50 up to about 1.1 µM and inactive = higher. Bounds are passed on as bounds.

Broadly, the GI50 is the concentration giving 50% growth inhibition. Consider `O=C1C(c2c(O)[nH]c3ccccc23)=Nc2ccc(Br)cc21`, for which the GI50 was 56.2 µM (inactive) in test [1]; 8.11 µM (inactive) in test [2]; 15.1 µM (inactive) in [3]; 24.3 µM (inactive) in test [4]; 76.2 µM in test [5]; 23.7 µM (inactive) in test [6]. The GI50 in test [7] is 21.3 µM (inactive); in [8] it was 23.9 µM (inactive); in test [9], 19.5 µM (inactive); in [10], 27.2 µM (inactive); in test [11] it was 51.8 µM (inactive); in test [12], 99.1 µM (inactive). The GI50 in [13] was > 100 µM (inactive); in test [14], 70 µM (inactive); in [15] it was 75.7 µM (inactive); in test [16], 25.4 µM (inactive); in test [17], 22.4 µM (inactive); in test [18] it was > 100 µM (inactive). Further, the GI50 in test [19] was 77.1 µM (inactive); in [20], 17.6 µM (inactive).
Consider `O=C(O)CCSC1=NCCN1`, for which the GI50 in test [1] was > 100 µM (inactive); in [2], > 100 µM (inactive); in test [3] it was > 100 µM (inactive); in [4], > 100 µM (inactive); in test [5], above 100 µM; in [6], > 100 µM (inactive). The GI50 in test [7], in test [8], in [9], in test [10], in test [11] and in [12] was > 100 µM (inactive) each time. Besides, the GI50 in [13], in test [14], in [15], in test [16], in test [17] and in [18] was > 100 µM (inactive) throughout. The GI50 in test [19] and in test [20] was > 100 µM (inactive) in each case.
`COC(=O)c1ccccc1NCc1cc(O)ccc1O`: the GI50 was 19.4 µM (inactive) in test [1]; 50.8 µM (inactive) in [2]; 22 µM (inactive) in [3]; 19.5 µM (inactive) in test [4]; 18.8 µM in [5]; 8 µM (inactive) in [6]. In addition, the GI50 was 28.6 µM (inactive) in test [7]; 21.8 µM (inactive) in test [8]; 19.7 µM (inactive) in test [9]; 19.6 µM (inactive) in test [10]; 17.1 µM (inactive) in [11]; 16.4 µM (inactive) in test [12]. In addition, the GI50 is 21.4 µM (inactive) in [13]; 30.1 µM (inactive) in [14]; 10.5 µM (inactive) in test [15]; 27.9 µM (inactive) in test [16]; 17.9 µM (inactive) in test [17]; 19 µM (inactive) in test [18]. Moreover, the values for the GI50 in test [19] and in test [20] were 18.6 µM (inactive) and 18.2 µM (inactive), respectively.
As for `ClCCCCCc1c2nc(c(CCCCCCl)c3ccc([nH]3)c(CCCCCCl)c3nc(c(CCCCCCl)c4ccc1[nH]4)C=C3)C=C2`, the GI50 in test [1] was > 100 µM (inactive); in [2], 1 µM (active); in [3], > 100 µM (inactive); in test [4], > 100 µM (inactive); in test [5], above 100 µM; in [6], > 100 µM (inactive). The GI50 in test [7], in test [8], in test [9], in [10], in [11] and in test [12] was > 100 µM (inactive) throughout. The GI50 in [13], in [14], in test [15], in [16], in test [17] and in test [18] was > 100 µM (inactive) each time. Also, the GI50 in test [19] and in test [20] was > 100 µM (inactive) in each case.
For the compound `CC(=O)O[C@H]1CC[C@H]2[C@@H]3CCC4C(C)=NNC(=O)C4[C@H]3CC[C@]12C` (stereo not given in full), the GI50 in test [1] was > 90.2 µM (inactive); in [2], > 75.5 µM (inactive); in [3], 48.9 µM (inactive); in [4], > 73.5 µM (inactive); in test [5], above 100 µM; in test [6], > 100 µM (inactive). In addition, the GI50 in test [7] is 19.8 µM (inactive); in [8], > 100 µM (inactive); in [9], 17.8 µM (inactive); in test [10] it was > 100 µM (inactive); in test [11] it was > 38.6 µM (inactive); in test [12], > 100 µM (inactive). Moreover, the GI50 in test [13] was 99.8 µM (inactive); in [14], > 100 µM (inactive); in [15], > 100 µM (inactive); in test [16], 34 µM (inactive); in test [17], 41.5 µM (inactive); in test [18], > 100 µM (inactive). The GI50 in test [19] is 95.5 µM (inactive); in test [20] it was > 100 µM (inactive).
For the compound `Cc1ccc(/C=C2\Cc3cc(C)c(C)cc3C2=O)c(C(=O)O)c1`, the GI50 is 45.8 µM (inactive) in test [1]; 26.7 µM (inactive) in test [2]; 87.7 µM (inactive) in test [3]; 32.1 µM (inactive) in [4]; 27.5 µM in test [5]; 54.3 µM (inactive) in [6]. Also, the GI50 was 33.7 µM (inactive) in [7]; 33.3 µM (inactive) in test [8]; 37.9 µM (inactive) in test [9]; 44.1 µM (inactive) in test [10]; 31 µM (inactive) in test [11]; 29.6 µM (inactive) in test [12]. In addition, the GI50 is 42.1 µM (inactive) in test [13]; 33.7 µM (inactive) in test [14]; 40.4 µM (inactive) in test [15]; 24.3 µM (inactive) in test [16]; 33.5 µM (inactive) in [17]; 29.1 µM (inactive) in [18]. Further, the GI50 is 30.5 µM (inactive) in [19] and 61.7 µM (inactive) in [20].
For `CCOC(=O)Nc1cc2c(c(N)n1)N=C(c1ccc(Cl)cc1Cl)CN2`, the GI50 in test [1] was 0.0383 µM (active); in [2] it was < 0.0191 µM (active); in test [3], 1.63 µM (inactive); in test [4], < 0.01 µM (active); in test [5] it was below 0.0229 µM; in test [6], 0.0132 µM (active). For the same compound, the GI50 was < 0.0189 µM (active) in [7]; < 0.0181 µM (active) in test [8]; < 0.0143 µM (active) in test [9]; < 0.01 µM (active) in test [10]; < 0.0195 µM (active) in test [11]; < 0.01 µM (active) in [12]. In addition, the GI50 in [13] was < 0.0178 µM (active); in [14], < 0.0154 µM (active); in test [15], < 0.01 µM (active); in test [16] it was 0.0845 µM (active); in test [17] it was 0.0112 µM (active); in test [18], < 0.0124 µM (active). For the same compound, the GI50 is 0.0805 µM (active) in test [19] and < 0.0105 µM (active) in [20].
